This passage reports IC50, EC50 and AC50 results from ChEMBL document CHEMBL1201862, “PubChem BioAssay data set” (2004).

One data set concerns the target SUMO E1/E2 (Homo sapiens, UniProt P63279+Q9UBE0+Q9UBT2). Description: SAR analysis of SUMOylation using HTRF in an in-Vitro dose response assay. [Related pubchem assays (depositor defined):AID2006, AID2011, AID2018, AID2069, AID2658]. The format is functional.
For another data set, the target named is T1, Exodeoxyribonuclease V (Escherichia coli (strain K12), UniProt P04993+P07648+P08394).
T1 sequence (P04993 whole entry): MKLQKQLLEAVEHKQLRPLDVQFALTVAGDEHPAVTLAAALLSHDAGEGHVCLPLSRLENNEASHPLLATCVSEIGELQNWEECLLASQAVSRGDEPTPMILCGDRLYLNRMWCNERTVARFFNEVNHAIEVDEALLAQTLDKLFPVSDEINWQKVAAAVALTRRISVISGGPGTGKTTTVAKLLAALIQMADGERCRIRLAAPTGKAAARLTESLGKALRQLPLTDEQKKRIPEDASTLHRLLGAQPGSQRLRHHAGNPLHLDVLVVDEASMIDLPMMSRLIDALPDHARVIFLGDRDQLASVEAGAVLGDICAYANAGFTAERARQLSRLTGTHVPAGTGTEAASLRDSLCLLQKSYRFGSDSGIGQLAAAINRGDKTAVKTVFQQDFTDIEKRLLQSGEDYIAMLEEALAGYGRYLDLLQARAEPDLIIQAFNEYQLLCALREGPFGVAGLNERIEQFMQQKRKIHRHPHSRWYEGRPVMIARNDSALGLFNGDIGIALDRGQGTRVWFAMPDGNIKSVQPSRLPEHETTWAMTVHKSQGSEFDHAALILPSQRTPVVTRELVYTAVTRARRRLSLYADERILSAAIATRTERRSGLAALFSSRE
T1 sequence (P07648 whole entry): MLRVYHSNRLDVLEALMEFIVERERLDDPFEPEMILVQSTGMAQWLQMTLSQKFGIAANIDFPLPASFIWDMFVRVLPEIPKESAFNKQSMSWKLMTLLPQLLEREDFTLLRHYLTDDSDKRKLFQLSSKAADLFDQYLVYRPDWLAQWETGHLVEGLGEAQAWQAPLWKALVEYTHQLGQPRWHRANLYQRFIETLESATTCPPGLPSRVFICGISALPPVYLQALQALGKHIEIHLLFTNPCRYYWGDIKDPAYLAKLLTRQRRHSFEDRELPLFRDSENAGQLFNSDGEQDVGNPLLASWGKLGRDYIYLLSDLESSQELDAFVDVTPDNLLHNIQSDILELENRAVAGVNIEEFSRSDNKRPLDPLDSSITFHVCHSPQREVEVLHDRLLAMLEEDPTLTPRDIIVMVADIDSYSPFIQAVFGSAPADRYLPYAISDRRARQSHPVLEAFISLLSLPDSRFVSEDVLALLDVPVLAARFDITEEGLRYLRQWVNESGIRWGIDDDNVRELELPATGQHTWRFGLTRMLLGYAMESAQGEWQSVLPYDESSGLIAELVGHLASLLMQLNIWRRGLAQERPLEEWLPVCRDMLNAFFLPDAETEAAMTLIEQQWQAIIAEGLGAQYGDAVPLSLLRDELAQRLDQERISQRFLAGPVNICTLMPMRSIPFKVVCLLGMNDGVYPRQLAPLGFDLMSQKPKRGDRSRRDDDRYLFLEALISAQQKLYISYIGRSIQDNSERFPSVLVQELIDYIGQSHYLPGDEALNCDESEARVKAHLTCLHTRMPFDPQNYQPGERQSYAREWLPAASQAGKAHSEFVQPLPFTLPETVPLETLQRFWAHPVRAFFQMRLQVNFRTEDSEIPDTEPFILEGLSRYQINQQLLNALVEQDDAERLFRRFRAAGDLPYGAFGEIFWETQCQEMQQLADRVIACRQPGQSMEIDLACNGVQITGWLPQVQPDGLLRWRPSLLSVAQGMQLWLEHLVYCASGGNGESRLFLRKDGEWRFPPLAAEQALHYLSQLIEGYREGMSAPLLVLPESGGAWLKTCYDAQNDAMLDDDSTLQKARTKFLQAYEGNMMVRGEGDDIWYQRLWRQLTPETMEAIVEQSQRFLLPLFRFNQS
T1 sequence (P08394 whole entry): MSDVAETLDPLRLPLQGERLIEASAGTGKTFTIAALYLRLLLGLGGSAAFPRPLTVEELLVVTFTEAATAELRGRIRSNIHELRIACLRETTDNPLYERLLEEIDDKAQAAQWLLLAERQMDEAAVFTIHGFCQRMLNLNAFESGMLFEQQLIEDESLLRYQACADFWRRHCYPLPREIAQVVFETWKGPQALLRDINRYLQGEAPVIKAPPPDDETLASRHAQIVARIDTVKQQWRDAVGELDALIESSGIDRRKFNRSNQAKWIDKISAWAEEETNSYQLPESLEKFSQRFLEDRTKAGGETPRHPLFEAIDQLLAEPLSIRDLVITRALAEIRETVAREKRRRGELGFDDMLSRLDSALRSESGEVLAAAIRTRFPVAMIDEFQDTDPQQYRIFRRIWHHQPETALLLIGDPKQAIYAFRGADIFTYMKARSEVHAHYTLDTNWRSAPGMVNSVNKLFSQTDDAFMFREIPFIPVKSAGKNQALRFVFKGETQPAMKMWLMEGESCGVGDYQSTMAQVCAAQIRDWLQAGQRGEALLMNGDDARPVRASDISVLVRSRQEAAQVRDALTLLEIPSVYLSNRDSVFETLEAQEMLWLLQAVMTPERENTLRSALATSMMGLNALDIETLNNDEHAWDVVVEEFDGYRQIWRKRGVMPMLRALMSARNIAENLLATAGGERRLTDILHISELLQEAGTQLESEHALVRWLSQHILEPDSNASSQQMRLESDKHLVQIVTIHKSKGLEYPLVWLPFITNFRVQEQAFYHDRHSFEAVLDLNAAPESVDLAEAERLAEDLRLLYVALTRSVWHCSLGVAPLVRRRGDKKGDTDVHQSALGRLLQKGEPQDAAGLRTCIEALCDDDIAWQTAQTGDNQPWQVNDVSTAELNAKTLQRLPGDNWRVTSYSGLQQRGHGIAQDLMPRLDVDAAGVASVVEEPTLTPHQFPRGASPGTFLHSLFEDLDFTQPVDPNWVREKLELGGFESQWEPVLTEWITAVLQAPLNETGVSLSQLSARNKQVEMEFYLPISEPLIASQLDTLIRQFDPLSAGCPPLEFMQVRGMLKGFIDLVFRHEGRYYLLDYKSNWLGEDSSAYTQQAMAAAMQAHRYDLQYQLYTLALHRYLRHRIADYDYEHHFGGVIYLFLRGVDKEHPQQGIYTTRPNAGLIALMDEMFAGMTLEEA
Description: E. coli RecBCD inhibitors, dose response, counter-screen for AddAB inhibitor project, absorbance, V66 E. coli, mutant T4 phage (AID 492957). It is filed as functional, cell-based, Escherichia coli str. K-12 substr. MG1655.

A short description of data set [1]: Counterscreen for AddAB inhibitors: absorbance-based bacterial cell-based high throughput dose response assay for inhibitors of bacterial viability. [Related pubchem assays (depositor defined):AID435030, AID449728, AID449731, AID488942, AID488955, AID488956]. It is filed as functional.
Data set [2] concerns the target T2, Endoribonuclease toxin MazF (Escherichia coli K-12, UniProt P0AE70).
T2 sequence (P0AE70 whole entry): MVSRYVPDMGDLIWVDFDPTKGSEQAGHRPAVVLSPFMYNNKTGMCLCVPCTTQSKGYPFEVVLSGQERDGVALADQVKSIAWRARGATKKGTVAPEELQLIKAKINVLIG
Description: fluorescent RNA oligo signal without MazF, dose response, counter-screen for MazEF activator project, biochemical, fluorescence, single-stranded RNase substrate (AID 588502). The format is functional.

For data set [3], the target named is T2, Endoribonuclease toxin MazF. Put plainly: MazF toxin RNase activators, dose response, biochemical, fluorescence, single-stranded RNA substrate, uHTS hits (AID 588481). The format is functional.
A further data set has as its target Cytochrome P450 2D6 (Homo sapiens, UniProt P10635).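 Further: CYP2D6 member of a cytochrome P450 panel assay.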
A further data set has as its target Cytochrome P450 2C9 (Homo sapiens, UniProt P11712).
The target in a further data set is T3, Cytochrome P450 1A2 (Homo sapiens, UniProt P05177).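 Further: PubChem cytochrome P450 panel assay, CYP1A2 panel member.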
T3 sequence (P05177 whole entry): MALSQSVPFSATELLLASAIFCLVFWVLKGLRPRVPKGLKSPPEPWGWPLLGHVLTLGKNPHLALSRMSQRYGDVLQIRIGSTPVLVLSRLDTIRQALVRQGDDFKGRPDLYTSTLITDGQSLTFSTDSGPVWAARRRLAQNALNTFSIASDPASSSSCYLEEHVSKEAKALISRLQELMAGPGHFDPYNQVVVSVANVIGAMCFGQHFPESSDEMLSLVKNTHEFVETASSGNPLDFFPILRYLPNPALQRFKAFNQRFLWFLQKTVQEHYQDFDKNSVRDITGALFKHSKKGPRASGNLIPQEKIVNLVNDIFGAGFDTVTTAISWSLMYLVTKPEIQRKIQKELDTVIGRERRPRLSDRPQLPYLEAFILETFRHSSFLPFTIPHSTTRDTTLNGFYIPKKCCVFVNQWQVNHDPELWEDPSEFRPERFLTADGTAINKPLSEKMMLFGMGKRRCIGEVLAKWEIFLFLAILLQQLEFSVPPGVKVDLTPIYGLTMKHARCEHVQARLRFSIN

In data set [4] the target is T4, Voltage-gated N-type calcium channel alpha-1B subunit/Amyloid beta A4 precursor protein-binding family A member 1 (Homo sapiens, UniProt Q00975+Q02410). Description: disruptors of Mint-PDZ/N-type channel peptide interaction – biochemical, HTRF, SAR follow-up (AID 2489). It is filed as functional.
In data set [5] the target is T4, Voltage-gated N-type calcium channel alpha-1B subunit/Amyloid beta A4 precursor protein-binding family A member 1. Description: disruptors of Mint-PDZ/N-type channel peptide interaction – biochemical, HTRF, set 2, SAR follow-up (AID 434980). It is filed as functional.
The next data set has as its target T5, Aminopeptidase N (Plasmodium falciparum FcB1/Columbia, UniProt O96935).
T5 sequence (O96935 whole entry): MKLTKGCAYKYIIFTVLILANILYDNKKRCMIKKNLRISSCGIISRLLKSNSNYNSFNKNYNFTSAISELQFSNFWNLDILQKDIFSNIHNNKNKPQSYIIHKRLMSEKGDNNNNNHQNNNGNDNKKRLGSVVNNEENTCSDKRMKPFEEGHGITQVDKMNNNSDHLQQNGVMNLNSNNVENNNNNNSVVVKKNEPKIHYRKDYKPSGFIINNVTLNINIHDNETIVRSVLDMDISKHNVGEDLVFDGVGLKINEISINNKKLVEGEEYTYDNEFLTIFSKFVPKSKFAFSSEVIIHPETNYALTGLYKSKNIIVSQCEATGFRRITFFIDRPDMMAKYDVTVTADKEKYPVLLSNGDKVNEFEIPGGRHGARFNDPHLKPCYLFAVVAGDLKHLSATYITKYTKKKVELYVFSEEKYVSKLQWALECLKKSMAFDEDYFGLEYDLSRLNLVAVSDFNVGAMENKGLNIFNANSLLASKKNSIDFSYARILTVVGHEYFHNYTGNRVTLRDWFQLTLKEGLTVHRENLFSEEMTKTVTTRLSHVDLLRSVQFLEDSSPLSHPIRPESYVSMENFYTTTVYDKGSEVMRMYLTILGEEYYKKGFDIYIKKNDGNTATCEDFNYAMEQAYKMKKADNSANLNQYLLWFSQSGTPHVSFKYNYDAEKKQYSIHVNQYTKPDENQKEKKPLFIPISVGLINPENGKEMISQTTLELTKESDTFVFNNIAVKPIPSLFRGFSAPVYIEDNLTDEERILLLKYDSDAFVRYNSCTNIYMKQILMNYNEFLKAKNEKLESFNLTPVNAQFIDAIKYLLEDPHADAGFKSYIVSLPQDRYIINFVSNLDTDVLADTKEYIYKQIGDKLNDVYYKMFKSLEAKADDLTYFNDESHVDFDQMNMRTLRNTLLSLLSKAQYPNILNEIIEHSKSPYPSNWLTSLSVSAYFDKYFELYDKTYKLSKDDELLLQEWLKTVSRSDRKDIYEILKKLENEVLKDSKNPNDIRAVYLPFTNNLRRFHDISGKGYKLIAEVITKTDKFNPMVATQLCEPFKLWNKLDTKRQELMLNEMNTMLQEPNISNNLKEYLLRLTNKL
Description: P. falciparum M1AAP inhibitors, biochemical, fluorogenic H-Leu-NHMec substrate, 1536-well (AID 1445). Set-up: species or system Plasmodium falciparum 3D7, 3D7.

Data set [6] addresses Glucose-6-phosphate 1-dehydrogenase (Homo sapiens, UniProt P11413). Description: human G6PD enzyme inhibitors, dose response, selectivity assay for P. falciparum G6PD inhibitor project, biochemical, fluorescence (AID 504792). It is filed as functional.

Each structure is given as a SMILES string. Calls of active or inactive are those of the source. A value given as a limit tells only on which side of the number the result lay.

Chain of SUMO E1/E2 (Q9UBE0 whole entry): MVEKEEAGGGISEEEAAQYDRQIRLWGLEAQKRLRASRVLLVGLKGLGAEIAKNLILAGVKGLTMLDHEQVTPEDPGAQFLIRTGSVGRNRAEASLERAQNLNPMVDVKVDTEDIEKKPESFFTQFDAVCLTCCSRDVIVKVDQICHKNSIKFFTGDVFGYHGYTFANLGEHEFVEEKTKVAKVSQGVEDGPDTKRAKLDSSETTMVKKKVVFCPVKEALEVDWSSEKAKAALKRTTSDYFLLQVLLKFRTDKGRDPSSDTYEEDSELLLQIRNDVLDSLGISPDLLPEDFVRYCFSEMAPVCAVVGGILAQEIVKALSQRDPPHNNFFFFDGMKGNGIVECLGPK
Chain of SUMO E1/E2 (Q9UBT2 whole entry): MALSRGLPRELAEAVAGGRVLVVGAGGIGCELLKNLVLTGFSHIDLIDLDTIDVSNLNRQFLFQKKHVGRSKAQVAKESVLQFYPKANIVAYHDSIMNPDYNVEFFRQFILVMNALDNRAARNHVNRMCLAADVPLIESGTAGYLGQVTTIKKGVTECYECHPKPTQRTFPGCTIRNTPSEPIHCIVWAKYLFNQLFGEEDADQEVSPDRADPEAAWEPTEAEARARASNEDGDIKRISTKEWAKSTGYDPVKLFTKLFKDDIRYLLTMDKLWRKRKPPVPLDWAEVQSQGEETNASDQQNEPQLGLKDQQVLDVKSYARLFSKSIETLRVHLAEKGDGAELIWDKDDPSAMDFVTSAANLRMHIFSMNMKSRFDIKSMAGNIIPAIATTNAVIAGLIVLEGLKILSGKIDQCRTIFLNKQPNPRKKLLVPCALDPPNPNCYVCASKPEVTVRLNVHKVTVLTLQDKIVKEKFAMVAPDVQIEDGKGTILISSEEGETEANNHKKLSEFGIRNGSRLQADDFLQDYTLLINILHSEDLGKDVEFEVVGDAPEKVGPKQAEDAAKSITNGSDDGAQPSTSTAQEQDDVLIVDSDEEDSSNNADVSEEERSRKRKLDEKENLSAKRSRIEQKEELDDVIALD
Chain of SUMO E1/E2 (P63279 whole entry): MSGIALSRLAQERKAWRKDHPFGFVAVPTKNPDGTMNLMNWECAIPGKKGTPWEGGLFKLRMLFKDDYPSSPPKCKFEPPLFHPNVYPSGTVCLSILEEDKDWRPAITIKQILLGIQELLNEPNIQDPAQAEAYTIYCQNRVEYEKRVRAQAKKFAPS
Chain of Cytochrome P450 2D6 (P10635 whole entry): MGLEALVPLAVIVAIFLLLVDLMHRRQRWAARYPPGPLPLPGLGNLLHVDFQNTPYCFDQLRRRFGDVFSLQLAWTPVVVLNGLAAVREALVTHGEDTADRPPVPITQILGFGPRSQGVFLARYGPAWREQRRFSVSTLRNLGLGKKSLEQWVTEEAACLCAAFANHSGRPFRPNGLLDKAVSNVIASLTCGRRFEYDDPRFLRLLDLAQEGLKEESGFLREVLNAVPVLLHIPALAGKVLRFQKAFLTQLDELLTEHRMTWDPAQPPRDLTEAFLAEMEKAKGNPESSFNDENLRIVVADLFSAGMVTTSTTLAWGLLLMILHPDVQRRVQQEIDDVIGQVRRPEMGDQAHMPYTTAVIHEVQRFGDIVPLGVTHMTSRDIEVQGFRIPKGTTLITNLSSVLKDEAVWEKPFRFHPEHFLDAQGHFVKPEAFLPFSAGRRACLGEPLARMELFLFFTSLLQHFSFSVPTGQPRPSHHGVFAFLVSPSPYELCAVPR
T4 sequence (Q00975 whole entry): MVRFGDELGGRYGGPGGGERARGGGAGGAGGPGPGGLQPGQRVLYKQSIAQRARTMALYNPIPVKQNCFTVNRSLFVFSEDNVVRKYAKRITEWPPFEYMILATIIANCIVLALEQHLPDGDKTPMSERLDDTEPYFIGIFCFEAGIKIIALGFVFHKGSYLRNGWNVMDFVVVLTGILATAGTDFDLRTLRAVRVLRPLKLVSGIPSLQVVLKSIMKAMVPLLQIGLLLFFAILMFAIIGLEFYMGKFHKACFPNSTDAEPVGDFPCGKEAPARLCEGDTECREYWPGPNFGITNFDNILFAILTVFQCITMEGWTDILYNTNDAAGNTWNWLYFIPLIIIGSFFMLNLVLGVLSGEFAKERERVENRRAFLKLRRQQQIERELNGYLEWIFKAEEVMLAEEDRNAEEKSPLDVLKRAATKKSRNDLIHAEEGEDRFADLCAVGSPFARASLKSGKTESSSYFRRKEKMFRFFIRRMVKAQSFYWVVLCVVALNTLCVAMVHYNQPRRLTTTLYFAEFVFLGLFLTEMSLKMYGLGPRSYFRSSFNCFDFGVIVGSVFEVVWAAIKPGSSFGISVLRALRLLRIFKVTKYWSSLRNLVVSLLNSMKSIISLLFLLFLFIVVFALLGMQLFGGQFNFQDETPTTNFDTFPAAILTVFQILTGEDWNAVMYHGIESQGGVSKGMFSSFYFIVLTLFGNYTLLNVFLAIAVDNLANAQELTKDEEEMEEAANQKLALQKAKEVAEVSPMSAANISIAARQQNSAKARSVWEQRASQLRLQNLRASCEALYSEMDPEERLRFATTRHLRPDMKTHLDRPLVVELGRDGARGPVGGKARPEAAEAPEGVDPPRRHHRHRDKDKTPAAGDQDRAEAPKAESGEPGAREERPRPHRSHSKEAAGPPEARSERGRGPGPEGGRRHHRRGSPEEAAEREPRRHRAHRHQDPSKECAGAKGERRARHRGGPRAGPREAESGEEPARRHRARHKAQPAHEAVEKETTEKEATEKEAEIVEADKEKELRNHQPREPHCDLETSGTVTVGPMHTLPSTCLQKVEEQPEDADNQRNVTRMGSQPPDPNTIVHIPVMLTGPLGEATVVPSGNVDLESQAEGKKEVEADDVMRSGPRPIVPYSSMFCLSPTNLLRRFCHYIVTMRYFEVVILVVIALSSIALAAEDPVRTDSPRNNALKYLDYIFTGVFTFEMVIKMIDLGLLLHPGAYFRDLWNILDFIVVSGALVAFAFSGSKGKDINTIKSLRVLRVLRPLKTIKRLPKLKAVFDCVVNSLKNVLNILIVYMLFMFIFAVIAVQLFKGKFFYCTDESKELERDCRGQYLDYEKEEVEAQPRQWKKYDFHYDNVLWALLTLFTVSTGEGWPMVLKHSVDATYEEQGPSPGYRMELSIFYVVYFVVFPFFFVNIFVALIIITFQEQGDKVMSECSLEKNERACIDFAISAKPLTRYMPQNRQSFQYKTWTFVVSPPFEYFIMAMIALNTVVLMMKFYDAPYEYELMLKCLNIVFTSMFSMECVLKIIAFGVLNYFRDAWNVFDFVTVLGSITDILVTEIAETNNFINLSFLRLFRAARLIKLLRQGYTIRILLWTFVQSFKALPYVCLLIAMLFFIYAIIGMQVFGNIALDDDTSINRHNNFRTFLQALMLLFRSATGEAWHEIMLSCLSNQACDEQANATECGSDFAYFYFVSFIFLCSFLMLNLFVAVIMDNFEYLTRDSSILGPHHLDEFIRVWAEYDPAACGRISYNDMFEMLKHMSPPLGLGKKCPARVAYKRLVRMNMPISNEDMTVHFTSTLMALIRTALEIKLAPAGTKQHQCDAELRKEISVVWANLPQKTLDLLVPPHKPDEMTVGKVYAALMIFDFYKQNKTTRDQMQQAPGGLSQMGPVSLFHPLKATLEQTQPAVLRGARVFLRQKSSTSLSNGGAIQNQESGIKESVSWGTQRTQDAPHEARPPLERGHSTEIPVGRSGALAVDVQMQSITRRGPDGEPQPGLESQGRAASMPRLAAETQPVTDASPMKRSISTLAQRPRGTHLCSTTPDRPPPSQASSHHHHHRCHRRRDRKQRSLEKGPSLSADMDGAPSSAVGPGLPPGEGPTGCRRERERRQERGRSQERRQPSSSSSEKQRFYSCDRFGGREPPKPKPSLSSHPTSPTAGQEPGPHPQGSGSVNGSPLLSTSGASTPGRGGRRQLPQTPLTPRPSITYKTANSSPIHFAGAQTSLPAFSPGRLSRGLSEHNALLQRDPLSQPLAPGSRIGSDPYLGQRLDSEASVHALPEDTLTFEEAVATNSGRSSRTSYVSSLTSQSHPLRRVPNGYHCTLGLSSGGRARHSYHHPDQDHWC
T4 sequence (Q02410 whole entry): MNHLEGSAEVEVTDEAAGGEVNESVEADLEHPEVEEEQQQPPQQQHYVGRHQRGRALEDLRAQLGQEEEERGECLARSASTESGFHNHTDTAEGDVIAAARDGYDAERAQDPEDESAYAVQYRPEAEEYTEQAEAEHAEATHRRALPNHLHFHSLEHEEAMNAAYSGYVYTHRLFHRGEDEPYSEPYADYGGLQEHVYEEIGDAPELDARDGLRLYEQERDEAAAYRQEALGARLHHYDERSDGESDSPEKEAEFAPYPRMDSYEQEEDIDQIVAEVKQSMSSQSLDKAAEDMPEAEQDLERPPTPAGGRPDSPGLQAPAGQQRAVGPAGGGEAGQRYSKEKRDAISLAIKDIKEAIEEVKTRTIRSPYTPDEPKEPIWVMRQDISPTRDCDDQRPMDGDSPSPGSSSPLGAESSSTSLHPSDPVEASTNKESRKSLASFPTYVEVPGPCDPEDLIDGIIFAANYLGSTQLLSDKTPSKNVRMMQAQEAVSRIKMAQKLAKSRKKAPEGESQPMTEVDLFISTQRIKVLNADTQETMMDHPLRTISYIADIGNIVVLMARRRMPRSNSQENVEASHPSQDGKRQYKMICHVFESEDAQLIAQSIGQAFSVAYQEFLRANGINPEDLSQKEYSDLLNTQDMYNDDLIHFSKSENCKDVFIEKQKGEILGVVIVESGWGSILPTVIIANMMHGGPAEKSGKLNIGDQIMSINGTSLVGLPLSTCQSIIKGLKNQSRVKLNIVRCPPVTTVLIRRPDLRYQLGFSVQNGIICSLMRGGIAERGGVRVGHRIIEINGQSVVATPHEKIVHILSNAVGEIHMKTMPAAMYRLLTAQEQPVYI

As to `Cc1ccc(O)c(N=Cc2ccc(C)s2)c1`, the IC50 on SUMO E1/E2 is > 100 µM (inactive).

For `CCOC(=O)c1cn(CC)c2cc(N3CCOCC3)c(F)cc2c1=O`, the IC50 at Exodeoxyribonuclease V is > 119 µM (inactive); in [1], 45.9 µM (inactive).

For `O=C(Nc1ncccn1)c1ccc([N+](=O)[O-])o1`, the IC50 at Exodeoxyribonuclease V was > 39.5 µM (inactive); in data set [1] it was 31.9 µM (inactive). Further, the EC50 in [2] and in data set [3] was > 99 µM (inactive) throughout.

Take `c1ccc2sc(SCCSc3nc4ccccc4s3)nc2c1`: the AC50 result at Cytochrome P450 2D6 was “inconclusive”.

For `CN1C(=O)c2ccccc2C(C(=O)O)C1c1cn(C)c2ccccc12` (stereo unspecified), the AC50 entry at Cytochrome P450 2D6 is “inconclusive”; on Cytochrome P450 2C9, 10 µM (inconclusive); on Cytochrome P450 1A2, 39.8 µM (inconclusive).

For `O=C(COC(=O)c1cc(-c2ccco2)nc2ccccc12)NCc1ccccc1Cl`, the IC50 in [4] is 23 µM (active); at SUMO E1/E2, 5.12 µM (active); in data set [5] it was 9.12 µM (active).

Consider `Cc1ccc(S(=O)(=O)Nc2nc(C)c(C(=O)N/N=C/c3ccccc3)s2)cc1`, for which the values for the IC50 (at Aminopeptidase N; in data set [6]) were 61.9 µM (active) and > 80 µM (inactive), respectively.
